Source: ChEMBL document CHEMBL1143744, “Modification of eukaryotic initiation factor 5A from Plasmodium vivax by a truncated deoxyhypusine synthase from Plasmodium falciparum: An enzyme with dual enzymatic properties” (Bioorg Med Chem, 2007)

Molecular target: T1, Deoxyhypusine synthase (Plasmodium falciparum, UniProt Q9GSW0)
T1 sequence (Q9GSW0 whole entry): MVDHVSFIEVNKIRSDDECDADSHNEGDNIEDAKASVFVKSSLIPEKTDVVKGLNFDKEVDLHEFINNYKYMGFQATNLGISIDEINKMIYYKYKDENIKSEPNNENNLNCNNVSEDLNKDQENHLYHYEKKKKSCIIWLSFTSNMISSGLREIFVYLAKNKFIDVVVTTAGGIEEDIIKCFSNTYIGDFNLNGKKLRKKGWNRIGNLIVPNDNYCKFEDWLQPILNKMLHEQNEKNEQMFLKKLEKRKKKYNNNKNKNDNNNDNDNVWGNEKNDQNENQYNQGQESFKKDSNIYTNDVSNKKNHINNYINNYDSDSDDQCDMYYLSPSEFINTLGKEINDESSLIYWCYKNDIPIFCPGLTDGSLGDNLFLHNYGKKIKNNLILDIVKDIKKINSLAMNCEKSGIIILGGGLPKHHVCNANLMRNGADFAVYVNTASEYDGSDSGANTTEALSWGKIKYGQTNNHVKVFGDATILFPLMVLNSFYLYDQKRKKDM
Experiment: Inhibition of recombinant deoxyhypusine synthase in Plasmodium falciparum NF54

N=C(N)NCCCCCCCN
Ki: 0.1 µM

NCCCCCCCN
Ki: 50 µM
